From patent US20120157401A1, “METHODS FOR TREATING NEUROFIBROMATOSIS” (PTC Therapeutics, Inc., priority 2009, published 2012)
Where two headings read alike, the source gives them in different places.

Test system: hypoxia-inducible endogenous VEGF expression
Experiment: Hypoxia-inducible endogenous VEGF expression ELISA in HeLa cells, dose-response EC50 (Table 3)
Format: cell-based, human
Protocol: The ability of the Compounds to modulate hypoxia-inducible endogenous VEGF expression may be analyzed as follows. VEGF protein levels may be monitored by an ELISA assay (R&D Systems). Briefly, HeLa cells may be cultured for 24-48 hours under hypoxic conditions (1% O2, 5% CO2, balanced with nitrogen) in the presence or absence of a Compound. The conditioned media may then be assayed by ELISA, and the concentration of VEGF calculated from the standard ELISA curve of each assay.
A dose-response analysis may be performed using the ELISA assay and conditions described above. The conditions for the dose-response ELISA are analogous to those described above. A series of, e.g., seven different concentrations may be analyzed. In parallel, a dose-response cytotoxicity assay may be performed using Cell Titer Glo (Promega) under the same conditions as the ELISA to ensure that the inhibition of VEGF expression was not due to the cytotoxicity.

[1] = Homo sapiens, HeLa cells, hypoxic conditions (1% O2), 24-48 hours, VEGF in conditioned media, read-out: ELISA EC50
[2] = Homo sapiens, HeLa, read-out: ELISA EC50 μM
[3] = Homo sapiens, HeLa cells, hypoxic conditions (1% O2), VEGF ELISA of conditioned media, read-out: ELISA EC50

| SMILES | EC50 [1] [µM] | further results |
| --- | --- | --- |
| Cc1ccc(OC(=O)N2CCc3c([nH]c4ccc(Cl)cc34)[C@@H]2c2ccc(OCCC(O)Cn3nccn3)cc2)cc1 (stereo partly shown) [Compound 1290] | < 0.008 | – |
| CN1CCN(CCCCOc2ccc(C3c4[nH]c5ccc(Cl)cc5c4CCN3C(=O)Oc3ccc(Cl)cc3)cc2)CC1 (stereo not shown) [Compound 704] | – | EC50 [2]: 0.04 to 0.2 µM |
| CCS(=O)(=O)NCC(O)CCOc1ccc([C@H]2c3[nH]c4ccc(Cl)cc4c3CCN2C(=O)Oc2ccc(C)cc2)cc1 (stereo partly shown) [Compound 1646] | – | EC50 [3]: < 0.008 µM |
| CC(=O)Oc1ccc(C2c3[nH]c4ccc(Cl)cc4c3CCN2C(=O)Oc2ccc(Cl)cc2)cc1 (stereo not shown) [Compound 463] | 0.008 to 0.04 | – |
| O=C(Oc1ccc(Cl)cc1)N1CCc2c([nH]c3ccc(Cl)cc23)C1c1ccc(Cl)cc1 (stereo not shown) [Compound 351] | 0.008 to 0.04 | – |
| NC(=O)COc1ccc(C2c3[nH]c4ccc(Cl)cc4c3CCN2C(=O)Oc2ccccc2Cl)cc1 (stereo not shown) [Compound 1213] | 0.04 to 0.2 | – |
| COCCOC(=O)NCC(O)CCOc1ccc([C@H]2c3[nH]c4ccc(Cl)cc4c3CCN2C(=O)Oc2ccc(Cl)cc2)cc1 (stereo partly shown) [Compound 1637] | – | EC50 [3]: < 0.008 µM |
| O=C(Oc1ccc(Cl)cc1)N1CCc2c([nH]c3ccc(Cl)cc23)[C@@H]1c1ccc(Oc2ncccn2)cc1 [Compound 1570] | – | EC50 [3]: < 0.008 µM |
| O=C(Oc1ccccc1)N1CCc2c([nH]c3ccc(Cl)cc23)C1c1ccc(OCCCn2ccnn2)cc1 (stereo not shown) [Compound 1077] | 0.008 to 0.04 | – |
| COc1cc(C2c3[nH]c4ccc(Cl)cc4c3CCN2C(=O)Oc2ccc(Cl)cc2)ccc1OCCCn1cncn1 (stereo not shown) [Compound 1087] | 0.008 to 0.04 | – |
| O=C(Oc1ccc(F)cc1)N1CCc2c([nH]c3ccc(Cl)cc23)C1c1ccc(OCCCCl)cc1 (stereo not shown) [Compound 712] | < 0.008 | – |
| COCCOCCOc1ccc(C2c3[nH]c4ccc(Cl)cc4c3CCN2C(=O)Oc2ccc(F)cc2)cc1 (stereo not shown) [Compound 673] | 0.008 to 0.04 | – |
| O=C(Oc1ccc(Cl)cc1)N1CCc2c([nH]c3ccc(Cl)cc23)C1c1ccc(OC2COC(c3ccccc3)OC2)cc1 (stereo not shown) [Compound 1569] | – | EC50 [3]: < 0.008 µM |
| CN(C)CCCOc1ccc(C2c3[nH]c4ccc(Cl)cc4c3CCN2C(=O)Oc2ccc(Cl)cc2)cc1 (stereo not shown) [Compound 479] | – | EC50 [2]: 0.04 to 0.2 µM |
| CCC(CO)(CO)COc1ccc(C2c3[nH]c4ccc(Br)cc4c3CCN2C(=O)Oc2ccc(Cl)cc2)cc1 (stereo not shown) [Compound 1358] | – | EC50 [3]: < 0.008 µM |
| O=C(Oc1ccccc1)N1CCc2c([nH]c3ccc(Cl)cc23)[C@@H]1c1ccc(OCC[C@H](O)CO)cc1 [Compound 1299] | < 0.008 | – |

| SMILES | EC50 [1] [µM] | further results |
| --- | --- | --- |
| COc1ccc(OC(=O)N2CCc3c([nH]c4ccc(Cl)cc34)C2c2ccc(OCCCn3ccnc3)cc2)cc1 (stereo not shown) [Compound 920] | < 0.008 | – |
| C[Si](C)(C)CCS(=O)(=O)N1CCC(Oc2ccc([C@H]3c4[nH]c5ccc(Cl)cc5c4CCN3C(=O)Oc3ccc(Cl)cc3)cc2)CC1 [Compound 1652] | – | EC50 [3]: < 0.008 µM |
| COC(=O)c1ccc(C2c3[nH]c4ccc(Cl)cc4c3CCN2C(=O)Oc2ccc(F)cc2)cc1 (stereo not shown) [Compound 579] | – | EC50 (HeLa cells, hypoxic conditions (1% O2), 24-48 hours, VEGF in conditioned media, read-out: ELISA EC50): < 0.008 µM |
| C=CCOc1ccc(C2c3[nH]c4ccc(Cl)cc4c3CCN2C(=O)Oc2ccc(Cl)cc2)cc1 (stereo not shown) [Compound 999] | < 0.008 | – |
| O=C(Oc1ccccc1)N1CCc2c([nH]c3ccc(Cl)cc23)C1c1ccc(OCCCO)cc1 (stereo not shown) [Compound 1062] | < 0.008 | – |
| O=C(Oc1ccc(Cl)cc1)N1CCc2c([nH]c3ccc(Cl)cc23)C1c1ccc(OCCCCCCN2CCCCC2)cc1 (stereo not shown) [Compound 787] | – | EC50 [2]: < 0.008 µM |
| COc1ccc(OC(=O)N2CCc3c([nH]c4ccc(Cl)cc34)C2c2ccc(OCCCN3CCOCC3)c(OC)c2)cc1 (stereo not shown) [Compound 1131] | – | EC50 [2]: 0.008 to 0.04 µM |
| CS(=O)(=O)NCC(O)COc1ccc(C2c3[nH]c4ccc(Cl)cc4c3CCN2C(=O)Oc2ccc(Cl)cc2)cc1 (stereo not shown) [Compound 849] | 0.008 to 0.04 | – |
| O=C(Oc1ccc(F)cc1)N1CCc2c([nH]c3ccc(Cl)cc23)C1c1cccc(OCCCN2CCOCC2)c1 (stereo not shown) [Compound 1115] | – | EC50 [2]: 0.008 to 0.04 µM |
| COc1ccc(C2c3[nH]c4ccc(C)cc4c3CCN2C(=O)Oc2ccc(Cl)cc2)cc1 (stereo not shown) [Compound 341] | 0.04 to 0.2 | – |
| O=C(Oc1ccc(Cl)cc1)N1CCc2c([nH]c3ccc(Cl)cc23)C1c1ccc(OCCCCl)cc1 (stereo not shown) [Compound 921] | < 0.008 | – |
| CN(C)CCCOc1ccc(C2c3[nH]c4ccc(Cl)cc4c3CCN2C(=O)Oc2ccccc2)cc1 (stereo not shown) [Compound 493] | – | EC50 [2]: 0.04 to 0.2 µM |
| O=C(Oc1ccc(Cl)cc1)N1CCc2c([nH]c3ccc(Cl)cc23)[C@@H]1c1ccc(OCCCO)cc1 [Compound 1250] | < 0.008 | – |
| C[Si](C)(C)CCS(=O)(=O)N1CCC(Oc2ccc(C3c4[nH]c5ccc(Cl)cc5c4CCN3C(=O)Oc3ccc(F)cc3)cc2)CC1 (stereo not shown) [Compound 1580] | – | EC50 [3]: < 0.008 µM |
| [H]/N=c1\sccn1CCOc1ccc(C2c3[nH]c4ccc(Cl)cc4c3CCN2C(=O)Oc2ccc(F)cc2)cc1 (stereo not shown) [Compound 1391] | – | EC50 [3]: < 0.008 µM |
